In patent EP0152542A1, “Pyrrol-3-carboxylic acids having central analgesic activity” (POLI INDUSTRIA CHIMICA S.p.A., priority 1983, dated 1985):
Read-outs that look alike come from different tables or passages of the source.

Experiments:
[1] = Acute toxicity per os in the mouse (LD50 at the 14th observation day); details: in vivo, po
Description: (§1) The analgesic activity of the compounds of for mula I, administered by the oral route has been determined by means of the following tests: • - Phenylquinone test in mice (Hendershot and Forsa ith - J. Pharmacol. Exp. Ther. 123, 237 (1959)) • - Hot plate test - Male albino mice, treated with increasing doses of the compound under test, are placed on a thermostatized plate at 55°C. The time necessary for the mouse to react to the painful stimulus is then measured. An effective dose 50 (ED50) is defined as the dose inducing a 50% increase of the reaction time, with respect to control animals. • - The acute toxicity per os has been studied in the mouse and in the rat and expressed as LD50 at the 14th observation day.

mice = assay: Phenylquinone test in mice (analgesic activity); type: in vivo; details: Mus musculus
Description: as §1

Male albino mice = assay: Hot plate test (thermostatized plate at 55°C, reaction time to painful stimulus); type: in vivo; details: Mus musculus
[2] = Acute toxicity per os in the rat (LD50 at the 14th observation day); details: in vivo, po
Description: as §1

[3] = test system: cyclooxygenase and the prostaglandinsynthetase; details: known compound, background statement; cited from earlier work
[4] = mice, oral, read-out: PHENYLQUINONE ED50 OS
[5] = sc, S.C., ED50 = dose inducing a 50% increase of the reaction time versus controls, plate at 55°C, read-out: HOT PLATE ED50 S.C. MICE

SMILES | LD50 at 336 h ([1]; read-out: LD50 MICE OS) [mg/kg] | ED50 (mice; [4]) [mg/kg] | ED50 (Male albino mice; [5]) [mg/kg] | LD50 at 336 h [2] [mg/kg] | LD50 at 336 h ([1]; mice, per os, 14th observation day, read-out: LD50 MICE OS) [mg/kg] | LD50 at 336 h ([2]; per os, 14th observation day) [mg/kg] | inhibits the cyclooxygenase and the prostaglandinesynthetase [3] | LD50 at 336 h ([1]; comparison compound, per os, read-out: LD50 mouse per os) [mg/kg] | ED50 (mice; po, read-out: ED50 phenylquinone) [mg/kg] | ED50 (Male albino mice; comparison compound, route not given, read-out: ED50 hot plate) [mg/kg]
Cc1c(C(=O)O)c(C)n(Cc2ccccc2Cl)c1C(=O)c1ccc(Cl)cc1 | 1200 | 10.8 | 5.5 | > 1600 |  |  |  |  |  | 
Cc1c(C(=O)O)c(C)n(Cc2ccccc2)c1C(=O)c1ccc(Cl)cc1 | 1500 | 7.6 | 4.8 | > 1600 |  |  |  |  |  | 
CCCCn1c(C)c(C(=O)O)c(C)c1C(=O)c1ccc(Cl)cc1 [R=C4H9, R1=Cl, R2=H, R3=H] | 1300 | 6.3 | 2.9 | > 1600 |  |  |  |  |  | 
Cc1ccc(C(=O)c2c(C)c(C(=O)O)c(C)n2C)cc1 [R=CH3, R1=CH3, R2=H, R3=H] | 1400 | 10 | > 10 | > 1600 |  |  |  |  |  | 
Cc1c(C(=O)O)c(C)n(C)c1C(=O)c1ccc(Cl)c(Cl)c1 [R=CH3, R1=Cl, R2=Cl, R3=H] | 800 | 7.5 | 4.7 | > 1600 |  |  |  |  |  | 
Cc1c(C(=O)O)c(C)n(C)c1C(=O)c1ccc(Cl)cc1Cl [R=CH3, R1=Cl, R2=H, R3=Cl, 1,2,4-Trimethyl-5-(2,4-dichlorobenzoyl)-pyrrol-3-carboxylic acid] |  | 10.9 | 5.7 |  | 1400 | 1700 |  |  |  | 
Cc1c(C(=O)O)c(C)n(C)c1C(=O)c1ccc(Cl)cc1 [R=CH3, R1=Cl, R2=H, R3=H, reference compound] | 800 | 4.6 | 2.3 | > 1600 |  |  |  |  |  | 
COc1ccc(C(=O)c2c(C)c(C(=O)O)c(C)n2C)cc1 [R=CH3, R1=OCH3, R2=H, R3=H] | > 1600 | 8.4 | 7.6 | > 1600 |  |  |  |  |  | 
Cc1cc(CC(=O)O)n(C)c1C(=O)c1ccc(Cl)cc1 [Zomepirac, 5-(p-chlorobenzoyl)-1,4-dimethyl-pyrrol-2-acetic acid] |  |  |  |  |  |  | inhibits |  |  | 
COc1ccc2c3c1O[C@H]1[C@@H](O)C=C[C@H]4[C@@H](C2)N(C)CC[C@@]341.Cl [codeine hydrochloride, reference compound] |  |  |  |  |  |  |  | 300 | 5.6 | 25
